# Reference: patent US10314820B2, “Imidazole-based heterocyclic compounds” (priority 2014, dated 2019)
# Legend:
# Type in all cases: cell-based
# [1] = system: Human keratinocytes (HaCaT cells); assay: Human cytotoxicity assay in vitro (CellTiter-Glo), keratinocytes; settings: keratinocyte cytotoxicity score; 24 h exposure
# [2] = system: Human hepatocytes (HepaRG cells); assay: Human cytotoxicity assay in vitro (CellTiter-Glo), hepatocytes; settings: hepatocyte cytotoxicity score; 24 h exposure
# [3] = system: linezolid-resistant Staphylococcus aureus (from MRSA, COL); assay: microbe, parasite or virus in culture; settings: Staphylococcus aureus, MRSA, read-out: MIC for the resistant strain
# [4] = system: vancomycin-resistant Staphylococcus aureus (from MRSA, COL); assay: microbe, parasite or virus in culture; settings: Staphylococcus aureus, MRSA, read-out: MIC for the resistant strain
Structure (SMILES),cytotoxicity cell line K [1],cytotoxicity cell line H [2],MIC [3] [µg/mL],MIC [4] [µg/mL]
Cc1[nH]c(-c2ccc(-c3ccc(Cl)cc3)s2)nc1-c1ccccc1 [Compound 6],0 (compounds not causing loss of cell viability at concentrations of 50 μM or higher),0 (compounds without signs of cell viability loss at concentrations of 50 μM or higher),–,–
Cc1[nH]c(-c2ccc(-c3ccc(F)cc3)s2)nc1-c1ccccc1 [Compound 7],2 (compounds causing>50% inhibition of cell viability at 25 μM),1 (compounds not causing a loss of viability at concentrations between 25 and 50 μM),–,–
Cc1[nH]c(-c2cc(C)n(-c3ccc(Cl)cc3)c2C)nc1-c1ccccc1 [Compound 8],1 (compounds causing less than 50% inhibition of cell viability at 50 μM),2,–,–
Cc1[nH]c(-c2cc(C)n(-c3ccc(F)cc3F)c2C)nc1-c1ccccc1 [Compound 9],2 (compounds causing>50% inhibition of cell viability at 25 μM),3,–,–
Cc1[nH]c(-c2cc(C)n(-c3ccc(F)c(F)c3F)c2C)nc1-c1ccccc1 [Compound 10],2 (compounds causing>50% inhibition of cell viability at 25 μM),3,–,–
Cc1[nH]c(-c2csc(-c3ccc(F)cc3)n2)nc1-c1ccccc1 [Compound 11],2 (compounds causing>50% inhibition of cell viability at 25 μM),1 (compounds not causing a loss of viability at concentrations between 25 and 50 μM),–,–
Cc1[nH]c(-c2ccc(-c3cccc(Cl)c3)s2)nc1-c1ccccc1 [Compound 12],2 (compounds causing>50% inhibition of cell viability at 25 μM),1 (compounds not causing a loss of viability at concentrations between 25 and 50 μM),–,–
Cc1[nH]c(-c2ccc(-c3cccc(Br)c3)s2)nc1-c1ccccc1 [Compound 13],1 (compounds causing less than 50% inhibition of cell viability at 50 μM),1 (compounds not causing a loss of viability at concentrations between 25 and 50 μM),–,–
Cc1[nH]c(-c2csc(-c3cccc(Br)c3)n2)nc1-c1ccccc1 [Compound 14],1 (compounds causing less than 50% inhibition of cell viability at 50 μM),1 (compounds not causing a loss of viability at concentrations between 25 and 50 μM),–,–
Cc1nc(-c2ccc(-c3ccc(Cl)cc3Cl)o2)[nH]c1-c1ccc(F)cc1 [Compound 16],1 (compounds causing less than 50% inhibition of cell viability at 50 μM),3,–,–
Cc1nc(-c2ccc(-c3ccccc3C(F)(F)F)o2)[nH]c1-c1ccccc1Cl [Compound 20],0 (compounds not causing loss of cell viability at concentrations of 50 μM or higher),3,–,–
Cc1nc(-c2ccc(-c3ccccc3OC(F)(F)F)o2)[nH]c1-c1cccc(Cl)c1 [Compound 21],2 (compounds causing>50% inhibition of cell viability at 25 μM),3,–,–
Cc1[nH]c(-c2ccc(-c3ccccc3C(F)(F)F)o2)nc1-c1cccc(Cl)c1 [Compound 22],2 (compounds causing>50% inhibition of cell viability at 25 μM),–,–,–
Cc1[nH]c(-c2ccc(-c3ccccc3C(F)(F)F)o2)nc1-c1ccc(Br)cc1 [Compound 25],0 (compounds not causing loss of cell viability at concentrations of 50 μM or higher),0 (compounds without signs of cell viability loss at concentrations of 50 μM or higher),–,–
Cc1[nH]c(-c2ccc(-c3ccccc3OC(F)(F)F)o2)nc1-c1ccc(C(F)(F)F)cc1 [Compound 26],0 (compounds not causing loss of cell viability at concentrations of 50 μM or higher),1 (compounds not causing a loss of viability at concentrations between 25 and 50 μM),–,–
C#Cc1ccc(-c2nc(-c3ccc(-c4ccccc4C(F)(F)F)o3)[nH]c2C)cc1 [Compound 27],2 (compounds causing>50% inhibition of cell viability at 25 μM),1 (compounds not causing a loss of viability at concentrations between 25 and 50 μM),–,–
CCc1ccc(-c2[nH]c(-c3ccc(-c4ccccc4C(F)(F)F)o3)nc2C)cc1 [Compound 28],0 (compounds not causing loss of cell viability at concentrations of 50 μM or higher),1 (compounds not causing a loss of viability at concentrations between 25 and 50 μM),–,–
"Cc1[nH]c(-c2ccc(-c3ccccc3OC(F)(F)F)o2)nc1Cc1ccc(Br)cc1 [Compound 30, 4-(4-Bromo-benzyl)-5-methyl-2-[5-(2-trifluoromethoxy-phenyl)-furan-2-yl]-1H-imidazole]",3 (compounds causing more than 50% inhibition of cell viability at 10 μM),3,–,–
Cc1[nH]c(-c2ccn(-c3ccccc3C(F)(F)F)c2)nc1-c1ccccc1 [Compound 33],3 (compounds causing more than 50% inhibition of cell viability at 10 μM),–,–,–
Cc1[nH]c(-c2cc(C)n(-c3cccc(C(F)(F)F)c3)c2C)nc1-c1ccccc1 [Compound 36],2 (compounds causing>50% inhibition of cell viability at 25 μM),3,–,–

Structure (SMILES),cytotoxicity cell line K [1],cytotoxicity cell line H [2],MIC [3] [µg/mL],MIC [4] [µg/mL]
Cc1nc(-c2ccc(-c3cccc(OC(F)(F)F)c3)o2)[nH]c1-c1ccc(F)cc1 [Compound 37],2 (compounds causing>50% inhibition of cell viability at 25 μM),3,–,–
Cc1[nH]c(-c2ccc(-c3cccc(C(F)(F)F)c3)o2)nc1-c1ccc(F)cc1 [Compound 38],2 (compounds causing>50% inhibition of cell viability at 25 μM),1 (compounds not causing a loss of viability at concentrations between 25 and 50 μM),–,–
Cc1nc(-c2ccc(-c3ccc(Cl)c(OC(F)(F)F)c3)o2)[nH]c1-c1ccc(F)cc1 [Compound 43],–,3,–,–
Cc1[nH]c(-c2ccc(-c3ccc(C(F)(F)F)cc3)s2)nc1-c1ccccc1 [Compound 46],1 (compounds causing less than 50% inhibition of cell viability at 50 μM),1 (compounds not causing a loss of viability at concentrations between 25 and 50 μM),–,–
Cc1[nH]c(-c2ccc(-c3ccc(OC(F)(F)F)cc3)o2)nc1-c1ccc(Cl)cc1 [Compound 48],1 (compounds causing less than 50% inhibition of cell viability at 50 μM),2,–,–
Cc1[nH]c(-c2ccc(-c3ccc(OC(F)(F)F)cc3Cl)o2)nc1-c1ccc(F)cc1 [Compound 51],3 (compounds causing more than 50% inhibition of cell viability at 10 μM),3,–,–
Cc1ccc(-c2ccc(-c3nc(-c4ccccc4)c(C)[nH]3)s2)cc1 [Compound 54],1 (compounds causing less than 50% inhibition of cell viability at 50 μM),1 (compounds not causing a loss of viability at concentrations between 25 and 50 μM),–,–
Cc1ccc(-c2ncc(-c3nc(-c4ccccc4)c(C)[nH]3)s2)cc1 [Compound 55],–,1 (compounds not causing a loss of viability at concentrations between 25 and 50 μM),–,–
Cc1ccc(-c2nc(-c3nc(-c4ccccc4)c(C)[nH]3)cs2)cc1 [Compound 56],3 (compounds causing more than 50% inhibition of cell viability at 10 μM),1 (compounds not causing a loss of viability at concentrations between 25 and 50 μM),–,–
Cc1ccc(-c2nc(-c3nc(-c4ccccc4)c(C)[nH]3)co2)cc1 [Compound 57],3 (compounds causing more than 50% inhibition of cell viability at 10 μM),1 (compounds not causing a loss of viability at concentrations between 25 and 50 μM),–,–
Cc1[nH]c(-c2cc(C)n(-c3ccc(C(C)C)cc3)c2C)nc1-c1ccccc1 [Compound 58],2 (compounds causing>50% inhibition of cell viability at 25 μM),3,–,–
Cc1[nH]c(-c2cc(C)n(-c3ccc4c(c3)CCC4)c2C)nc1-c1ccccc1 [Compound 59],2 (compounds causing>50% inhibition of cell viability at 25 μM),2,–,–
FC(F)(F)Oc1ccccc1-c1ccc(-c2ncc(-c3ccccc3)[nH]2)o1 [Compound 63],–,2,–,–
FC(F)(F)c1ccccc1-c1ccc(-c2nc(Cl)c(-c3ccccc3)[nH]2)o1 [Compound 65],–,2,–,–
FC(F)(F)Oc1ccccc1-c1ccc(-c2nc(-c3ccccc3Cl)c[nH]2)o1 [Compound 67],2 (compounds causing>50% inhibition of cell viability at 25 μM),2,–,–
FC(F)(F)Oc1ccccc1-c1ccc(-c2nc(-c3ccc(Cl)cc3Cl)c[nH]2)o1 [Compound 68],2 (compounds causing>50% inhibition of cell viability at 25 μM),2,–,–
Cc1[nH]c(-c2coc(-c3ccccc3C(F)(F)F)c2)nc1-c1ccccc1 [Compound 72],2 (compounds causing>50% inhibition of cell viability at 25 μM),3,–,–
Cc1[nH]c(-c2ccc(-c3ccccc3)s2)nc1-c1ccccc1 [Compound 74],3 (compounds causing more than 50% inhibition of cell viability at 10 μM),1 (compounds not causing a loss of viability at concentrations between 25 and 50 μM),–,–
"CC(=O)NC[C@H]1CN(c2ccc(N3CCOCC3)c(F)c2)C(=O)O1 [linezolid, reference compound]",–,–,7.5,–
"CN[C@H](CC(C)C)C(=O)N[C@H]1C(=O)N[C@@H](CC(N)=O)C(=O)N[C@H]2C(=O)N[C@H]3C(=O)N[C@H](C(=O)N[C@H](C(=O)O)c4cc(O)cc(O)c4-c4cc3ccc4O)[C@H](O)c3ccc(c(Cl)c3)Oc3cc2cc(c3O[C@@H]2O[C@H](CO)[C@@H](O)[C@H](O)[C@H]2O[C@H]2C[C@](C)(N)[C@H](O)[C@H](C)O2)Oc2ccc(cc2Cl)[C@H]1O [vancomycin, Vancomycin, reference compound]",–,–,–,20
